Laboratory results reported in ChEMBL document CHEMBL5465560, “Selectivity Literature for EUbOPEN Chemogenomic Library” (2024).

Columns and labels:
[1] = biological target: Mitogen-activated protein kinase kinase kinase kinase 4 (Homo sapiens, UniProt O95819); experiment: Selectivity interaction (KinomeScan (DiscoverX)) EUB0001079a MAP4K4; settings: at 1 µM
[2] = biological target: T1, Aurora kinase A (Homo sapiens) (UniProt O14965); experiment: Selectivity interaction (Millipore kinase profiler) EUB0000124b STK6; settings: at 10 µM
T1 sequence (whole entry): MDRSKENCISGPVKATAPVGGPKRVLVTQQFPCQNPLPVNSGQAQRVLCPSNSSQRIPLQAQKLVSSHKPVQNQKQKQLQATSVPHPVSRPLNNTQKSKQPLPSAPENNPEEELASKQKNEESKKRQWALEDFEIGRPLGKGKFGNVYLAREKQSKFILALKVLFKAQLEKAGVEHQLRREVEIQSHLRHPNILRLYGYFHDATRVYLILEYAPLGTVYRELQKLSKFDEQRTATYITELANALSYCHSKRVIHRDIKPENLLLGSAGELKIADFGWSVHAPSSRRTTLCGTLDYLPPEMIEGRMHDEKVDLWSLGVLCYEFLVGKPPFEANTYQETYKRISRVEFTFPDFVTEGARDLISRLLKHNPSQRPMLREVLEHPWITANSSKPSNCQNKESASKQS

[3] = biological target: T2, 5-hydroxytryptamine receptor 3A (Homo sapiens) (UniProt P46098); experiment: Selectivity interaction (Panel of kinases, GPCRs, ion channels and transporters (enzymatic assay)) EUB0000223bCl HTR3A
T2 sequence (whole entry): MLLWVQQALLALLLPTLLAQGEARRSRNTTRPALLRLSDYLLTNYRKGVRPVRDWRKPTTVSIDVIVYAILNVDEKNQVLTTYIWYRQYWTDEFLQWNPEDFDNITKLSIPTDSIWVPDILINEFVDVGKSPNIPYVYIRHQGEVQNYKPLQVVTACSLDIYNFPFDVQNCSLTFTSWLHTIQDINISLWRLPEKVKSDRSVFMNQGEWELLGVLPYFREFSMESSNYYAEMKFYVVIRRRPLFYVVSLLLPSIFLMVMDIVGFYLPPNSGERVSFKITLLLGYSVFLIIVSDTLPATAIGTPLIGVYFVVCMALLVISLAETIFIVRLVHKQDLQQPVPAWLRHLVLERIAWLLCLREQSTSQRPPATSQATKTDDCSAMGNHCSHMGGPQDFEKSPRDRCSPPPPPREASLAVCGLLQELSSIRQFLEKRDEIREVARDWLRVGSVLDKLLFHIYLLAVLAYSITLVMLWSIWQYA

[4] = biological target: Mitogen-activated protein kinase 8 (Homo sapiens, UniProt P45983); experiment: Selectivity interaction (SelectScreen profiling (Invitrogen)) EUB0000607a MAPK8; settings: at 2 µM
[5] = biological target: T3, Serine/threonine-protein kinase TNNI3K (Homo sapiens) (UniProt Q59H18); experiment: Selectivity interaction (Ambit KINOMEscan and KiNATiv profiling in Jurkat cells) EUB0000090b TNNI3K; assay type: cell-based; settings: at 1 µM
T3 sequence (whole entry): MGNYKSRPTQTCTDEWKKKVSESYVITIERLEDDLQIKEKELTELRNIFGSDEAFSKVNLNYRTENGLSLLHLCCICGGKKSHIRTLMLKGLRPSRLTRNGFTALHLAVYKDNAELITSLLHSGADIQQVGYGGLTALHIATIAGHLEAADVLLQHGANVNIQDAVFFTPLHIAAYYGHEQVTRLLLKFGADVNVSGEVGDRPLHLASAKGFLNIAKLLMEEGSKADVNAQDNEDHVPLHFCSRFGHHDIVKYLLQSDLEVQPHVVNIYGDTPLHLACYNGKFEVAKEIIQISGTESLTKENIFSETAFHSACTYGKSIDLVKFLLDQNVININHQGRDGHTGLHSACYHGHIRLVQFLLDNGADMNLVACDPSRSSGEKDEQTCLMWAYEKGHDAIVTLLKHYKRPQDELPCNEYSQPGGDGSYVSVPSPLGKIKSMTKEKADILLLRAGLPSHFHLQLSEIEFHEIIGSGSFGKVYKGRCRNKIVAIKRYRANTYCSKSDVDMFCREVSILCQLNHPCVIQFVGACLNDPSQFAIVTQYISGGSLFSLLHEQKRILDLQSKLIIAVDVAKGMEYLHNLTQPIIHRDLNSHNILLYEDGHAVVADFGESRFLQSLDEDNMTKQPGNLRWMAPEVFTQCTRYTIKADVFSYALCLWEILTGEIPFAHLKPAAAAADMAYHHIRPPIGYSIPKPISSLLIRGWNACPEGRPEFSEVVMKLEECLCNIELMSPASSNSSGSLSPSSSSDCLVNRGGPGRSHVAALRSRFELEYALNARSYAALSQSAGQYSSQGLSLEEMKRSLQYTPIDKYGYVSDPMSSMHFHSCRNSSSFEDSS

[6] = biological target: T4, NUAK family SNF1-like kinase 1 (Homo sapiens) (UniProt O60285); experiment: Selectivity interaction (KinomeScan (DiscoverX)) EUB0001619a NUAK1; settings: at 1 µM
T4 sequence (whole entry): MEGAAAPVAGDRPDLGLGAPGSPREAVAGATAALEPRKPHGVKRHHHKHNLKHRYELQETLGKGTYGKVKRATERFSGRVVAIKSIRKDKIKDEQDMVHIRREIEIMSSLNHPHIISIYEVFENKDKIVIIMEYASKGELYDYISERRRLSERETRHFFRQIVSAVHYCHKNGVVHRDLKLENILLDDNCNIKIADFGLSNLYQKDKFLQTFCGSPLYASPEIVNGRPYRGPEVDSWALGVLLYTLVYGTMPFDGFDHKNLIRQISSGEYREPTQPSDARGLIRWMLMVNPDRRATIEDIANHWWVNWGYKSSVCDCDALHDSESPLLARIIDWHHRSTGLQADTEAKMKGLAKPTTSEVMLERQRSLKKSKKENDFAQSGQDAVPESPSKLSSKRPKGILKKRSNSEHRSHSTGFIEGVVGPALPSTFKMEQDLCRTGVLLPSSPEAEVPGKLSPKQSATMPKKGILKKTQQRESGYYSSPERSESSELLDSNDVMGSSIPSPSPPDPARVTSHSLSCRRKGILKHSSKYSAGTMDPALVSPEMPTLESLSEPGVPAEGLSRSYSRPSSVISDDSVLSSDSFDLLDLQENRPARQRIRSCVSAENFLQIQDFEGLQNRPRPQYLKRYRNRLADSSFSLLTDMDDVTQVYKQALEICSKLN

Sequence of Mitogen-activated protein kinase 8 (P45983 whole entry): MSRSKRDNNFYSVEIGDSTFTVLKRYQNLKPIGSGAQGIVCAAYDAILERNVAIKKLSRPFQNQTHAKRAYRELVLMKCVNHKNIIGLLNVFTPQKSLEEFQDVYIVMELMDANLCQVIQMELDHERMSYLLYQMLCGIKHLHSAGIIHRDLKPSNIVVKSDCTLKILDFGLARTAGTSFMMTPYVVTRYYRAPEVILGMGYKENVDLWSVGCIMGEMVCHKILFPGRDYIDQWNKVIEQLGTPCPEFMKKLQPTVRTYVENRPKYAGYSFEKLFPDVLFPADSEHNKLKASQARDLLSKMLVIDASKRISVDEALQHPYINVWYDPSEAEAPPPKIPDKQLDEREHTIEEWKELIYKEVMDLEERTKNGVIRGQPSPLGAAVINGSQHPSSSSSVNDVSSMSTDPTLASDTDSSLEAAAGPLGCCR
Sequence of Mitogen-activated protein kinase kinase kinase kinase 4 (O95819 2-1239 limits assumed): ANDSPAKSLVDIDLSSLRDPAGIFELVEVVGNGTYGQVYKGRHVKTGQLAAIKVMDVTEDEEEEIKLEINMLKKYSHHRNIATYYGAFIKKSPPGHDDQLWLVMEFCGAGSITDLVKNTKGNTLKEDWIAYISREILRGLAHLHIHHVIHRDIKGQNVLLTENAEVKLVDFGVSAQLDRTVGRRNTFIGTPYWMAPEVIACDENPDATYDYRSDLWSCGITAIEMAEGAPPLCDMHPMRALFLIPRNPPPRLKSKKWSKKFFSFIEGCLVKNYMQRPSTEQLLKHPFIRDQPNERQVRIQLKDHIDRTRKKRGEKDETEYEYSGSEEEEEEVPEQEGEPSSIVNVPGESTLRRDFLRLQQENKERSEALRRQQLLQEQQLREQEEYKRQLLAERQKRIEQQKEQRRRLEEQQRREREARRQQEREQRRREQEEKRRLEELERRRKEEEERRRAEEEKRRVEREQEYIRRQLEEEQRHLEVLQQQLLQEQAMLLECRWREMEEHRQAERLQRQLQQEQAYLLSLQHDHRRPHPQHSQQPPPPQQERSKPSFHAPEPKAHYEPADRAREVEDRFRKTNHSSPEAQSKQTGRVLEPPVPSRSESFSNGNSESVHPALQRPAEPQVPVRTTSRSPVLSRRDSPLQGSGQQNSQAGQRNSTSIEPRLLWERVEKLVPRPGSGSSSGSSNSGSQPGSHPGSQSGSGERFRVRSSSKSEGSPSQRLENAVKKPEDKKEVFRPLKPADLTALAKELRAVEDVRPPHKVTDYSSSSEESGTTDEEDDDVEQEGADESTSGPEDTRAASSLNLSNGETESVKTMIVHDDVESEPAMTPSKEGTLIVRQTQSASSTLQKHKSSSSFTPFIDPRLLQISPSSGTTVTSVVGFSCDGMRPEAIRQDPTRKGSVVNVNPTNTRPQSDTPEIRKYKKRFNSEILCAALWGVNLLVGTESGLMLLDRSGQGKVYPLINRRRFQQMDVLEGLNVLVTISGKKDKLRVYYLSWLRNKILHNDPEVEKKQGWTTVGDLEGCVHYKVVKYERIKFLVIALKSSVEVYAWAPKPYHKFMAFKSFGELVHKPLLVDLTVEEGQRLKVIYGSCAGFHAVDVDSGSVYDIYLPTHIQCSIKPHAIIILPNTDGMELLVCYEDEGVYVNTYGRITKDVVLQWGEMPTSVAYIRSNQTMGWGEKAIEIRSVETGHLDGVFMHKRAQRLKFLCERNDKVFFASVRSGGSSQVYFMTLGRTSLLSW

## Nc1cnc(N2CCc3cc(S(=O)(=O)Nc4c(F)cc(Cl)cc4F)cc(N4CCCC4=O)c32)nc1 [TP-020n]
[1]
  % of control: 61%

## CC(=O)Nc1cccc(-n2c(=O)n(C3CC3)c(=O)c3c(Nc4ccc(I)cc4F)n(C)c(=O)c(C)c32)c1
[2]
  % of control: 124%

## COc1cc(C(=O)N2CC[C@@H](O)[C@@H](N)C2)cc2nc(-c3cc4ccccc4n3CC3CC3)n(C)c12
[3]
  pXC50: 4.3 M

## CNC(=O)Nc1ccc(-c2nc(N3CC4CCC(C3)O4)c3cnn(C4CCC5(CC4)OCCO5)c3n2)cc1
[4]
  % of inhibition: 12%

## CN(C)C/C=C/C(=O)Nc1ccc(C(=O)N2CCCC(Nc3ncc(Cl)c(-c4c[nH]c5ccccc45)n3)C2)cc1 (stereo unspecified)
[5]
  % of control: 86%

## N#Cc1cccc(-c2c[nH]c3ncnc(N4CCOCC4)c23)c1
[6]
  % of control: 71%
